The record followed here is patent US20250041282A1, “METHOD FOR TREATING INFLAMMATORY PULMONARY DISEASE” (FU JEN CATHOLIC UNIVERSITY, priority 2021, published 2025).

The subject of assay [1] is C57BL/6 mice with LPS-induced systemic inflammation. The assay is described as follows: Histological examination of lung specimens (H&E). The class given is in vivo, mouse. The following applies: FJU-C28 5 mg/kg, LPS 7.5 mg/kg, FIG. 12A. The procedure: Ten-week-old male C57BL/6 mice from BioLasco Taiwan Co., Ltd. (Taipei, Taiwan) were used in the present study. The mice were maintained under standard laboratory conditions as described in a previous study.^34 All animal procedures were approved by the Institutional Animal Care and Use Committee of Fu Jen Catholic University (IACUC approval number: A10508). We also confirmed that all experiments were performed in compliance with the ARRIVE guidelines. All surgeries were performed under anesthesia, and all efforts were made to minimize the pain and discomfort of the animals. The mice were randomly assigned to three groups: control (n=7), LPS (n=7) and LPS plus C28 (n=8). […] The detailed procedure was performed as described in a previous study.^34 The lung function values, including C chord (lung compliance), IC (inspiratory capacity), VC (vital capacity), FEV100 (forced expiratory volume at 100 ms) and FVC (forced vital capacity), were measured using a Buxco Research System. […]
To evaluate the protective effect of FJU-C28 on lung function in mice with systemic inflammation induced by endotoxin, male C57BL/6 mice were administered LPS (7.5 mg/kg) and treated with/without FJU-C28 (5 mg/kg) for 24 hours; subsequently, lung function parameters were measured using a Buxco pulmonary function test system. […]

Assay [2] relates to STAT3, smad3, TGF1β-induced alpha-SMA and fibronectin. The assay is described as follows: Immunoblot comparison of FJU-C28 with Pirfenidone. The class given is cell-based. The following applies: versus Pirfenidone; FIGS. 10A-10C. How it is done: Further, a comparison between FJU-C28 and FDA-approved drug Pirfenidone for effects on STAT3 inhibition, smad3 activation, TGF1β-induced alpha-SMA and fibronectin expression are conducted. The results are shown in the quantitative immunoblot data in FIGS. 10A, 10B and 10C.

A further assay deals with RAW264.7 macrophages. Nature of the assay: Western blotting of LPS-stimulated macrophage lysates. The class given is cell-based, mouse. An excerpt: In brief, cell lysate was separated by 10% SDS-PAGE and transferred to a PVDF membrane (Hybond™-P, Amersham, Piscataway, NJ, USA). The blots were probed with anti-p38 (Catalogue Number: 8690P), anti-p-p38 (Thr180/Tyr182; Catalogue Number: 4511P), anti-ERK44/42 (Catalogue Number: 4695P), anti-p-ERK44/42 (Thr202/Tyr204; Catalogue Number: 4370P), anti-JNK (Catalogue Number: 9258P), anti-p-JNK (Thr183/Tyr185; Catalogue Number: 4668P), anti-p65 (Catalogue Number: 8242S), anti-STAT3 (Catalogue Number: 12640S), anti-p-STAT3 (Tyr705; Catalogue Number: 9145S) and anti-RANTES (Catalogue Number: 2989S) antibodies were provided by Cell Signaling Technology, Inc. (Danvers, MA, USA). Anti-Lamin A/C (Catalogue Number: 101127) antibodies were obtained from GeneTex, Inc. (San Antonio, TX, USA). Anti-β-Actin (Catalogue Number: SC-47778) and anti-COX2 (Catalogue Number: SC-1746) antibody was obtained from Santa Cruz Biotechnology, Inc. (Dallas, Texas, USA). The anti-iNOS (Catalog Number: 610329) antibody was obtained from BD transduction Lab. (San Jose, CA, USA). Bound antibodies were visualized by […] staining (Western Lighting Plus ECL; PerkinElmer, Wellesley, MA, USA) with autoradiography using FUJI Medical X-ray film (Fuji Corporation, Kofu, Yamanashi, Japan) or a MultiGel-21 multifunctional imaging system (TOPBIO, New Taipei, Taiwan). The intensity of the western blot bands was quantified by ImageJ software. The quantitative immunoblot data were normalized to the internal control protein and are expressed as the relative ratio of the treatment group to the control. The data represent the mean±S.D. of at least three independent experiments.

Assay [3] has as its system C57BL/6 mice with LPS-induced systemic inflammation. The assay is described as follows: Serum cytokines by ELISA in mice with LPS-induced systemic inflammation. The class given is in vivo, mouse. The following applies: FJU-C28 5 mg/kg, LPS 7.5 mg/kg; FIG. 12B. How it is done:
RANTES (RayBiotech), IL-1β and IL-6 (eBioscience, San Diego, CA, USA) concentrations in cell culture media and mouse serum were measured using ELISA kits according to the manufacturer's instructions. The plates were measured at […] using an Epoch microplate spectrophotometer (BioTek Instruments, Winooski, VT, USA). The concentrations of RANTES, IL-1β and IL-6 in the samples were determined by standard curves.
Ten-week-old male C57BL/6 mice from BioLasco Taiwan Co., Ltd. (Taipei, Taiwan) were used in the present study. […] The detailed procedure was performed as described in a previous study.^34 The lung function values, including C chord (lung compliance), IC (inspiratory capacity), VC (vital capacity), FEV100 (forced expiratory volume at 100 ms) and FVC (forced vital capacity), were measured using a Buxco Research System. […]
To evaluate the protective effect of FJU-C28 on lung function in mice with systemic inflammation induced by endotoxin, male C57BL/6 mice were administered LPS (7.5 mg/kg) and treated with/without FJU-C28 (5 mg/kg) for 24 hours; subsequently, lung function parameters were measured using a Buxco pulmonary function test system. […] To ascertain the correlation between target cytokines and lung injury, serum cytokines were measured by ELISA.
A general note: In an ELISA, binding on a coated surface is turned into a signal by an enzyme label.

Assay [4] shares this test system. The assay is described as follows: Lung function in mice with LPS-induced systemic inflammation (Buxco). The class given is in vivo, mouse. The following applies: FJU-C28 5 mg/kg, LPS 7.5 mg/kg, 24 hours. The procedure:
Ten-week-old male C57BL/6 mice from BioLasco Taiwan Co., Ltd. (Taipei, Taiwan) were used in the present study. The mice were maintained under standard laboratory conditions as described in a previous study.^34 All animal procedures were approved by the Institutional Animal Care and Use Committee of Fu Jen Catholic University (IACUC approval number: A10508). We also confirmed that all experiments were performed in compliance with the ARRIVE guidelines. All surgeries were performed under anesthesia, and all efforts were made to minimize the pain and discomfort of the animals. The mice were randomly assigned to three groups: control (n=7), LPS (n=7) and LPS plus C28 (n=8). The mice were injected with/without FJU-C28 (5 mg/kg) dissolved in DMSO/PBS buffer, and after one hour the mice were stimulated with an intraperitoneal injection of LPS (7.5 mg/kg) in PBS buffer. At 24 hours after LPS stimulation, the mice were anesthetized i.p. with a mixture of ketamine (100 mg/kg) (Pfizer, New York, US) and xylazine (10 mg/kg) (Bayer, Leverkusen, Germany), endotracheally intubated with an airway catheter and connected to a forced pulmonary maneuver system (Buxco Research System; Buxco Electronics, Wilmington, NC). The detailed procedure was performed as described in a previous study.^34 The lung function values, including C chord (lung compliance), IC (inspiratory capacity), VC (vital capacity), FEV100 (forced expiratory volume at 100 ms) and FVC (forced vital capacity), were measured using a Buxco Research System. After the lung function assays, the experimental mice were sacrificed, and blood was collected by cardiac puncture. The lung lobes were inflated with 4% buffered paraformaldehyde via a catheter. Slides of lung specimens at a thickness of 5 μm were stained with hematoxylin and eosin for light microscopic analysis.
To evaluate the protective effect of FJU-C28 on lung function in mice with systemic inflammation induced by endotoxin, male C57BL/6 mice were administered LPS (7.5 mg/kg) and treated with/without FJU-C28 (5 mg/kg) for 24 hours; subsequently, lung function parameters were measured using a Buxco pulmonary function test system. […] However, treatment with FJU-C28 restored the LPS-induced decreases in lung function including VC (p<0.05), C chord, FEV100 (p<0.05), and FVC (p<0.05), compared to those of LPS-treated mice (FIG. 11). To confirm the status of LPS-induced lung injury in mice, histological examination of lung specimens was performed by H&E staining. […] To ascertain the correlation between target cytokines and lung injury, serum cytokines were measured by ELISA.

Where [5] appears, read: LPS-stimulated, at doses higher than 5 μM, FIG. 1D.

In the case of `C=CCC1CC(Sc2ccccc2)=CC(=O)N1C(=O)C=C` (stereo not drawn) [FJU-C28], in assay [1], the “alveolar structure in lung tissue” value was “sustained most of the alveolar structure” and the “neutrophil infiltration in the interstitium of the lung” value is given as “reduced the neutrophil infiltration in the interstitium”. For the same molecule, in assay [2], the “inhibition of STAT3” value is reported as “more significant than that of Pirfenidone”, the “inhibition of TGF1β-induced alpha-SMA expression” value is given as “more significant than that of Pirfenidone”, the “inhibition of TGF1β-induced fibronectin expression” value is recorded as “more significant than that of Pirfenidone” and the “inhibition of smad3” value was “more significant than that of Pirfenidone”. Also, in the assay with RAW264.7 macrophages (5 μM and 10 μM, FIG. 6A), the “LPS-induced level of p-ERK” value is “dramatically inhibited”, the “LPS-induced level of p-JNK” value is listed as “dramatically inhibited” and the “LPS-induced level of p-p38” value is “dramatically inhibited”. In the assay with RAW264.7 macrophages (FIG. 8), the “levels of STAT3 protein” value is given as “reducing the levels of STAT3 protein”. For the same molecule, the “LPS-induced phosphorylation of STAT3” value in the assay on RAW264.7 macrophages (LPS-induced RAW264.7, FIG. 6D) is reported as “concentration-dependently inhibited”. Also, in the assay on RAW264.7 macrophages (setting [5]), the “expression of COX2 (immunoblot)” value is recorded as “suppressed” and the “expression of iNOS (immunoblot)” value is listed as “suppressed”. The “NF-κB (p65) in nuclear extract (translocation)” value in the assay with RAW264.7 macrophages (LPS-stimulated, increasing dose, FIG. 6C) is given as “nuclear NF-κB (p65) was decreased”. The “LPS-induced protein expression of RANTES (western blot)” value with RAW264.7 macrophages (at 6 hours, FIG. 4B) is on record as “dramatically suppressed”. Besides, in assay [3], the “circulating (serum) level of IL-6” value is listed as “significantly suppressed” and the “circulating (serum) level of RANTES” value is on record as “significantly suppressed”. Also, in assay [4] (p<0.05 vs LPS-treated mice), the “forced expiratory volume at 100 ms (FEV100)” value was “restored”, the “forced vital capacity (FVC)” value was “restored” and the “vital capacity (VC)” value was “restored”. Moreover, the “lung compliance (C chord)” value in assay [4] (vs LPS-treated mice) was “restored”.
